Measured values reported in PMC5714280 (Bioorganic & medicinal chemistry letters, 2017).

Legend:
[1] = Stability in solution and photo-stability; assay type: physicochemical; conditions: for photo-stability: exposed to normal fluorescent light, aryl iodide
[2] = target: Sigma1 (Homo sapiens, UniProt Q99720); experiment: In vitro radio-ligand binding assay using membranes from MDA-MB-468 cancer cells; conditions: for fold decrease in binding affinity compared to IPAG: relative to IPAG
[3] = Plasma stability, mouse; assay type: in vitro ADME
[4] = test system: MDA-MB-468 cells; experiment: Cell viability assay; assay type: cell-based; conditions: Cell Titer Glo
[5] = Plasma stability, human; assay type: in vitro ADME
[6] = target: T1, androgen receptor (AR) (Homo sapiens, UniProt P10275); experiment: Androgen reporter assay; assay type: cell-based
T1 sequence (P10275 1-920): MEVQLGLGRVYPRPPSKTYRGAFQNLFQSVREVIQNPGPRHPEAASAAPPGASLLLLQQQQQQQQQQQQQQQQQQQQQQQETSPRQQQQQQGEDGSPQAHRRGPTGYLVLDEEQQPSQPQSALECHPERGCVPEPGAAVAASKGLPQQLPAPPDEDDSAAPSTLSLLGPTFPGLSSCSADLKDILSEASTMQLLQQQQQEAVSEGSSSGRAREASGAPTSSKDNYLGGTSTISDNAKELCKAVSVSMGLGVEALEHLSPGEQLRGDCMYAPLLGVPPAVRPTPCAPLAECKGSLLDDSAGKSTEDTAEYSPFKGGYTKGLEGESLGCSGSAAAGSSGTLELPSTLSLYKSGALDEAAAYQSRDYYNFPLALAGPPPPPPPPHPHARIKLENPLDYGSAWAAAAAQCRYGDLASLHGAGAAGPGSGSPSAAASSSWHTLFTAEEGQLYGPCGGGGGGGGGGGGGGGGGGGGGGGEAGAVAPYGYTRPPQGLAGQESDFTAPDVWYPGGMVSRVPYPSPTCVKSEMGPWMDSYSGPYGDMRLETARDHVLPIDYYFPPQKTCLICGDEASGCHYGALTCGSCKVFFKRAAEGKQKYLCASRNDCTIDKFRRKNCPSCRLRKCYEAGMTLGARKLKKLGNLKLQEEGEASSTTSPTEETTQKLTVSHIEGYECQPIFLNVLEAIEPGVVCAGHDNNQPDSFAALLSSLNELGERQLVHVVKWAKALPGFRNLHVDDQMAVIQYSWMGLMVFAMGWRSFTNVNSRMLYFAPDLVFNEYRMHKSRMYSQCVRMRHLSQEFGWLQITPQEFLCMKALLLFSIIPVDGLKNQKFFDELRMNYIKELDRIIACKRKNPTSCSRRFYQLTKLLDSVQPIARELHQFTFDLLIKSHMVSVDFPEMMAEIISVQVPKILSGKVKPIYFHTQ

[7] = Mouse pharmacokinetic exposure, IP, plasma and brain; conditions: male, Swiss, brain, 10 mg/kg
[8] = Mouse pharmacokinetics, IV and oral, plasma levels; assay type: in vivo, Male Swiss Mice; conditions: for V / AUC / clearance: 2 mg/kg IV; for AUC / clearance: male, Swiss, mouse, plasma, iv, 2 mg/kg; for AUC: AUC0−¥; for clearance: CL

Chain of Sigma1 (Q99720 whole entry): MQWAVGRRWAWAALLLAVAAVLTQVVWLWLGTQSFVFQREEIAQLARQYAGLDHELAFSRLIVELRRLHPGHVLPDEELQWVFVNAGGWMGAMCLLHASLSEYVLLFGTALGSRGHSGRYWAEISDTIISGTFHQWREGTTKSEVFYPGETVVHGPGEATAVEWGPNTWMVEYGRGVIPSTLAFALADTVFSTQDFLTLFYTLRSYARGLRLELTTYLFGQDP

| Structure (SMILES) | photo-stability [1] | Plasma Stability Mouse [3] [h] | acute cytotoxicity [4] | antiproliferative activity, potency [4] [nM] | Plasma Stability Human [5] [h] | fold decrease in binding affinity compared to IPAG [2] | other results |
| --- | --- | --- | --- | --- | --- | --- | --- |
| N=C(Nc1ccc(I)cc1)Nc1ccc(I)cc1 [compound 2] | photo-stability issue similar to IPAG | – | – | – | – | – | Sigma1 binding affinity (in words) [2]: binding affinity similar to IPAG |
| N=C(NCCCOc1ccc(F)cc1)NCCCOc1ccc(F)cc1 [compound 3] | – | – | – | – | – | – | Sigma1 binding affinity (in words) [2]: no affinity |
| N=C(NCCCOc1ccc(F)cc1)Nc1ccc(I)cc1 [compound 1] | photo-stability issue similar to IPAG | >6 | not acutely cytotoxic | 3000 to 20000 | >6 | 5–10 fold | – |
| N=C(NCCCOc1ccc(F)cc1)Nc1ccc(C(F)(F)F)cc1 [compound 6] | – | – | – | – | – | 5–10 fold | – |
| C[C@]12CC[C@H](O)CC1=CC[C@@H]1[C@@H]2CC[C@]2(C)C(c3cccnc3)=CC[C@@H]12 [abiraterone] | – | – | – | – | – | – | EC50 [6]: 17100 nM |
| N=C(NCCCOc1ccc(F)cc1)Nc1ccc(Cl)cc1 [compound 4, 1-(4-chlorophenyl)-3-(3-(4-fluorophenoxy)propyl)guanidine] | – | >6 | not acutely cytotoxic | 3000 to 20000 | >6 | – | Cmax [7]: 691 ng/g; V ([8]; Data set 1): 91.0 L/kg; V ([8]; Data set 2): 57.6 L/kg; AUC ([8]; Data set 1): 57 ng·h/mL; AUC ([8]; Data set 2): 71 ng·h/mL; clearance ([8]; Data set 1): 586 mL/min/kg; clearance ([8]; Data set 2): 469 mL/min/kg; dose escalation of exposure, oral 10 mg/kg to 30 mg/kg ([8]; oral route, 10 mg/kg to 30 mg/kg): < 3 fold |
| COc1ccc(NC(=N)NCCCOc2ccc(F)cc2)cc1 [compound 5] | – | >6 | not acutely cytotoxic | 3000 to 20000 | >6 | 5–10 fold | – |
| NC(=NC12CC3CC(CC(C3)C1)C2)Nc1ccc(I)cc1 [IPAG, (1-adamantan-1-yl)-3-(4-iodophenyl)guanidine, reference compound] | particularly unstable when exposed to normal fluorescent light | – | – | 3000 to 20000 | – | – | stability in solution ([1]; in solution): unstable when in solution |
